Like-named read-outs stand apart in the source and are kept apart here.
Experiments:
DLD-1 = assay: cells; format: cell-based; details: for IC50: read-out: Basal_Viability ATP DLD-1 summarized IC50
HT-29 = assay: cells; format: cell-based; details: for IC50: read-out: Basal_Viability ATP HT-29 summarized IC50
SNU-C1 = assay: cells; format: cell-based; details: for IC50: read-out: Basal_Viability ATP SNU-C1 summarized IC50
SW480 = assay: cells; format: cell-based; details: for IC50: read-out: Basal_Viability ATP SW480 summarized IC50
RKO = assay: cells; format: cell-based; details: for IC50: read-out: Basal_Viability ATP RKO summarized IC50
HeLa cells = assay: cells; format: cell-based
HCT116 = assay: cells; format: cell-based; details: for IC50: read-out: Basal_Viability ATP HCT116 summarized IC50
Colo320 = assay: cells; format: cell-based; details: for IC50: read-out: Basal_Viability ATP Colo 320 summarized IC50
[1] = tested on: ECFC/ADSC co-culture cell nuclei number; details: for IC50: read-out: VEGF_ADSC\ECFC Angio Hoechst NucArea summarized IC50
[2] = tested on: endothelial tube formation in co-cultures of ECFCs and ADSCs treated with VEGF; assay: cells; format: cell-based, human; details: for IC50: read-out: VEGF_ADSC\ECFC Angio CD31 TubeArea summarized IC50
[3] = assay number 14, 2N, read-out: Hela CellCycMod PI 2N summarized IC50
[4] = assay number 15, S phase, read-out: Hela CellCycMod PI S Phase summarized IC50
[5] = assay number 16, 4N, read-out: Hela CellCycMod PI 4N summarized IC50
[6] = assay number 17, MI, read-out: Hela CellCycMod PI MI summarized IC50
[7] = assay number 18, cell number, read-out: Hela CellCycMod PI Cell Number summarized IC50
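For Hela CellCycMod PI 4N summarized IC50 in this document: value tracks stimulation of 4N DNA content.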

## Fc1ccc(C(OCCN2CCN(CCCc3ccccc3)CC2)c2ccc(F)cc2)cc1 [NCGC00015300-10]
DLD-1; basal
  IC50/EC50, Basal_Viability ATP DLD-1 (assay number 23): 0.9032 µM
HT-29; basal
  IC50/EC50, Basal_Viability ATP HT-29 (assay number 28): 1.4851 µM
SNU-C1; basal
  IC50/EC50, Basal_Viability ATP SNU-C1 (assay number 30): 1.817 µM
SW480; basal
  IC50/EC50, Basal_Viability ATP SW480 (assay number 24): 2.068 µM
RKO; basal
  IC50/EC50, Basal_Viability ATP RKO (assay number 29): 0.113 µM
HeLa cells; 2N
  IC50/EC50, Hela CellCycMod PI 2N (assay number 14): > 10 µM
HeLa cells; 4N
  IC50/EC50, Hela CellCycMod PI 4N (assay number 16): > 10 µM
HeLa cells; Cell Number
  IC50/EC50, Hela CellCycMod PI Cell Number (assay number 18): 3.2 µM
HeLa cells; MI
  IC50/EC50, Hela CellCycMod PI MI (assay number 17): > 10 µM
HeLa cells; S Phase
  IC50/EC50, Hela CellCycMod PI S Phase (assay number 15): > 10 µM
HCT116; basal
  IC50/EC50, Basal_Viability ATP HCT116 (assay number 25): 4.8718 µM
Colo320; basal
  IC50/EC50, Basal_Viability ATP Colo 320 (assay number 27): > 20 µM

## O=c1[nH]cc(F)c(=O)[nH]1 [NCGC00015442-15]
DLD-1; assay number 23, basal
  IC50: > 20 µM
HT-29; assay number 28, basal
  IC50: > 20 µM
SNU-C1; assay number 30, basal
  IC50: > 20 µM
SW480; assay number 24, basal
  IC50: > 20 µM
RKO; assay number 29, basal
  IC50: > 20 µM
HeLa cells; [3]
  IC50: > 10 µM
HeLa cells; [4]
  IC50: > 10 µM
HeLa cells; [5]
  IC50: > 10 µM
HeLa cells; [6]
  IC50: > 10 µM
HeLa cells; [7]
  IC50: > 10 µM
[1]
  IC50: > 10 µM
[2]
  IC50: > 10 µM
Colo320; assay number 27, basal
  IC50: > 20 µM

## CS(=O)(=O)O.Cc1ccc2c(c1)c1c3n2CCNC3CCC1 (stereo not shown) [NCGC00024749-04]
DLD-1; assay number 23
  Basal_Viability ATP DLD-1 IC50/EC50: > 20 µM
HT-29; assay number 28
  Basal_Viability ATP HT-29 IC50/EC50: > 20 µM
SNU-C1; assay number 30
  Basal_Viability ATP SNU-C1 IC50/EC50: 2.4763 µM
SW480; assay number 24
  Basal_Viability ATP SW480 IC50/EC50: > 20 µM
RKO; assay number 29
  Basal_Viability ATP RKO IC50/EC50: > 20 µM
HeLa cells; assay number 14, 2N
  Hela CellCycMod PI 2N IC50/EC50: > 10 µM
HeLa cells; assay number 15, S phase
  Hela CellCycMod PI S Phase IC50/EC50: > 10 µM
HeLa cells; assay number 16, 4N
  Hela CellCycMod PI 4N IC50/EC50: > 10 µM
HeLa cells; assay number 17, MI
  Hela CellCycMod PI MI IC50/EC50: > 10 µM
HeLa cells; assay number 18, cell number
  Hela CellCycMod PI Cell Number IC50/EC50: > 10 µM
HCT116; assay number 25, basal
  Basal_Viability ATP HCT116 IC50/EC50: > 20 µM
Colo320; assay number 27
  Basal_Viability ATP Colo 320 IC50/EC50: > 20 µM

## Nc1ncn([C@@H]2O[C@H](CO)[C@@H](O)[C@H]2O)c(=O)n1 [NCGC00090851-10]
DLD-1; assay number 23
  Basal_Viability ATP DLD-1 IC50/EC50: 2.5502 µM
HT-29; assay number 28
  Basal_Viability ATP HT-29 IC50/EC50: 12.5329 µM
SNU-C1; assay number 30
  Basal_Viability ATP SNU-C1 IC50/EC50: 1.8027 µM
SW480; assay number 24
  Basal_Viability ATP SW480 IC50/EC50: > 6.6667 µM
RKO; assay number 29
  Basal_Viability ATP RKO IC50/EC50: 7.4004 µM
[1]
  VEGF_ADSC\ECFC Angio Hoechst NucArea IC50/EC50: > 10 µM
HCT116; assay number 25, basal
  Basal_Viability ATP HCT116 IC50/EC50: 3.0364 µM
[2]
  VEGF_ADSC\ECFC Angio CD31 TubeArea IC50/EC50: > 10 µM
Colo320; assay number 27
  Basal_Viability ATP Colo 320 IC50/EC50: 12.3406 µM

## CC(=O)[O][Hg][c]1ccccc1 [NCGC00091050-09]
DLD-1; assay number 23, basal
  IC50: 0.736 µM
HT-29; assay number 28, basal
  IC50: 0.799 µM
SNU-C1; assay number 30, basal
  IC50: 0.192 µM
SW480; assay number 24, basal
  IC50: 0.543 µM
RKO; assay number 29, basal
  IC50: 1.2 µM
[1]
  IC50: 0.883 µM
HCT116; assay number 25, basal
  IC50: 2.8 µM
[2]
  IC50: 0.53 µM
Colo320; assay number 27, basal
  IC50: 1.3 µM

## CN(C)c1ccc(C(=C2C=CC(=[N+](C)C)C=C2)c2ccc(N(C)C)cc2)cc1 [NCGC00091112-09]
DLD-1; assay number 23, basal
  IC50: 0.471 µM
HT-29; assay number 28, basal
  IC50: 0.467 µM
SNU-C1; assay number 30, basal
  IC50: 0.394 µM
SW480; assay number 24, basal
  IC50: 0.528 µM
RKO; assay number 29, basal
  IC50: 0.994 µM
[1]
  IC50: 1.83 µM
HCT116; assay number 25, basal
  IC50: 0.514 µM
[2]
  IC50: 0.186 µM
Colo320; assay number 27, basal
  IC50: 2.05 µM

## Oc1ccc(Cl)cc1Cc1cc(Cl)ccc1O [NCGC00091325-09]
DLD-1
  IC50: 0.862 µM
HT-29
  IC50: 4.69 µM
SNU-C1
  IC50: 0.546 µM
SW480
  IC50: 2.5 µM
RKO
  IC50: 1.93 µM
[1]
  IC50: 6 µM
HCT116
  IC50: 1.55 µM
[2]
  IC50: 2.32 µM
Colo320
  IC50: 1.21 µM

## CC[n+]1c(-c2ccccc2)c2cc(N)ccc2c2ccc(N)cc21 [NCGC00091387-08]
DLD-1; assay number 23, basal
  IC50: > 20 µM
HT-29; assay number 28, basal
  IC50: > 20 µM
SNU-C1; assay number 30, basal
  IC50: > 20 µM
SW480; assay number 24, basal
  IC50: > 20 µM
RKO; assay number 29, basal
  IC50: 3.35 µM
HeLa cells; [3]
  IC50: > 10 µM
HeLa cells; [4]
  IC50: > 10 µM
HeLa cells; [5]
  IC50: > 10 µM
HeLa cells; [6]
  IC50: > 10 µM
HeLa cells; [7]
  IC50: > 10 µM
HCT116; assay number 25, basal
  IC50: 4.44 µM
Colo320; assay number 27, basal
  IC50: > 20 µM

## Cc1c(C)c2c(c(C)c1O)CC[C@@](C)(CCC[C@H](C)CCC[C@H](C)CCCC(C)C)O2 [NCGC00142625-10]
DLD-1; assay number 23, basal
  IC50: > 20 µM
HT-29; assay number 28, basal
  IC50: > 20 µM
SNU-C1; assay number 30, basal
  IC50: > 20 µM
SW480; assay number 24, basal
  IC50: > 20 µM
RKO; assay number 29, basal
  IC50: 2.61 µM
[1]
  IC50: > 10 µM
HCT116; assay number 25, basal
  IC50: > 20 µM
[2]
  IC50: > 10 µM
Colo320; assay number 27, basal
  IC50: > 20 µM

Source: paper PMC4503722, “Novel Phenotypic Outcomes Identified for a Public Collection of Approved Drugs from a Publicly Accessible Panel of Assays” (PLoS ONE, 2015)
